Data as given in ChEMBL document CHEMBL3102742, “Corallorazines from the myxobacterium Corallococcus coralloides” (J Nat Prod, 2014).
Activity calls are given as the source filed them.

Columns and labels:
[1] = biological target: Cathepsin B (Homo sapiens) (UniProt P07858); experiment: Inhibition of cathepsin B (unknown origin) up to 10 ug/ml
[2] = biological target: Procathepsin L (Homo sapiens) (UniProt P07711); experiment: Inhibition of cathepsin L (unknown origin) up to 10 ug/ml
[3] = biological target: Cathepsin S (Homo sapiens) (UniProt P25774); experiment: Inhibition of cathepsin S (unknown origin) up to 10 ug/ml
[4] = biological target: Prothrombin (Homo sapiens) (UniProt P00734); experiment: Inhibition of human thrombin up to 10 ug/ml
Trypsin (Homo sapiens) = Trypsin (Homo sapiens) (UniProt P07477+P07478+P35030); experiment: Inhibition of trypsin (unknown origin) up to 10 ug/ml; type: protein assay
Homo sapiens = species: Homo sapiens; experiment: Inhibition of chymotrypsin (unknown origin) up to 10 ug/ml
[5] = biological target: T1, Neutrophil elastase (Homo sapiens) (UniProt P08246); experiment: Inhibition of human leucocyte elastase up to 10 ug/ml
T1 sequence (whole entry): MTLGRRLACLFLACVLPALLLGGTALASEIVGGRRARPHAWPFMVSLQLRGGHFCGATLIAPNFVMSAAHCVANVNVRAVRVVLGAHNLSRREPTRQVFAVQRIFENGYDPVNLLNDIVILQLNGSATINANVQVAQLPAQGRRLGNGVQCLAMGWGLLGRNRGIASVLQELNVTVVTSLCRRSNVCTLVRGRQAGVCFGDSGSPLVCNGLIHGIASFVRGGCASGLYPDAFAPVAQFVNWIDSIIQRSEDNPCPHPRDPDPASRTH

[6] = biological target: Cannabinoid receptor 2 (Homo sapiens) (UniProt P34972); experiment: Binding affinity to CB2 receptor (unknown origin) up to 10 ug/ml
[7] = biological target: Cannabinoid receptor 1 (Homo sapiens) (UniProt P21554); experiment: Binding affinity to CB1 receptor (unknown origin) up to 10 ug/ml
Microbotryum violaceum = experiment: Antifungal activity against Microbotryum violaceum up to 1 mg/ml by agar diffusion method; type: functional, organism-based
Aspergillus ruber = experiment: Antifungal activity against Eurotium rubrum DSM 62631 up to 1 mg/ml by agar diffusion method; type: functional
Mycotypha microspora = experiment: Antifungal activity against Mycotypha microspora up to 1 mg/ml by agar diffusion method; type: functional, organism-based
Priestia megaterium = experiment: Antibacterial activity against Bacillus megaterium DSM 32 up to 1 mg/ml by agar diffusion method; type: functional, organism-based
Escherichia coli = experiment: Antibacterial activity against Escherichia coli DSM 498 up to 1 mg/ml by agar diffusion method; type: functional, organism-based

Cannabinoid receptor 2 (Homo sapiens), sequence (P34972 whole entry): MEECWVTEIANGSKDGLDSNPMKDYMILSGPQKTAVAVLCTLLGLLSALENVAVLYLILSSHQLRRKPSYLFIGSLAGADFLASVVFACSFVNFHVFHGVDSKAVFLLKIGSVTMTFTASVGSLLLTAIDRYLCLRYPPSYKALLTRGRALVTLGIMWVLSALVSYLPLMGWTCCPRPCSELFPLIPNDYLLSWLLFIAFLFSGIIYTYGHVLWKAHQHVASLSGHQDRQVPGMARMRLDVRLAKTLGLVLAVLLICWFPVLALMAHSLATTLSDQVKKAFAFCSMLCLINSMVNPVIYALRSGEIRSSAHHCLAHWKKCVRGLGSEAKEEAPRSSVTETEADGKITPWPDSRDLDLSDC
Cathepsin S (Homo sapiens), sequence (P25774 115-331 limits assumed): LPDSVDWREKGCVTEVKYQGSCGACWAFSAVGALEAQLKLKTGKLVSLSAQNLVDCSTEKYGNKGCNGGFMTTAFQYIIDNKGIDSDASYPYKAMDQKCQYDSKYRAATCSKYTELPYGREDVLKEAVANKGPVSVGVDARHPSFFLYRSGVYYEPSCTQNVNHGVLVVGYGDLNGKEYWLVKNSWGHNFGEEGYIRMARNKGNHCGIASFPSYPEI
Procathepsin L (Homo sapiens), sequence (P07711 114-333 limits assumed): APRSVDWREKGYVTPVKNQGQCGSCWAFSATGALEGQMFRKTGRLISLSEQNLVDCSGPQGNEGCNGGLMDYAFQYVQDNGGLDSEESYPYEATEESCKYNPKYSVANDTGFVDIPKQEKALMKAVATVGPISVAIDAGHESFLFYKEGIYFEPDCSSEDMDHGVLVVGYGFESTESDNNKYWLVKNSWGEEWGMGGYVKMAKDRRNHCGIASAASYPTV
Cannabinoid receptor 1 (Homo sapiens), sequence (P21554 whole entry, the tested form may be a part): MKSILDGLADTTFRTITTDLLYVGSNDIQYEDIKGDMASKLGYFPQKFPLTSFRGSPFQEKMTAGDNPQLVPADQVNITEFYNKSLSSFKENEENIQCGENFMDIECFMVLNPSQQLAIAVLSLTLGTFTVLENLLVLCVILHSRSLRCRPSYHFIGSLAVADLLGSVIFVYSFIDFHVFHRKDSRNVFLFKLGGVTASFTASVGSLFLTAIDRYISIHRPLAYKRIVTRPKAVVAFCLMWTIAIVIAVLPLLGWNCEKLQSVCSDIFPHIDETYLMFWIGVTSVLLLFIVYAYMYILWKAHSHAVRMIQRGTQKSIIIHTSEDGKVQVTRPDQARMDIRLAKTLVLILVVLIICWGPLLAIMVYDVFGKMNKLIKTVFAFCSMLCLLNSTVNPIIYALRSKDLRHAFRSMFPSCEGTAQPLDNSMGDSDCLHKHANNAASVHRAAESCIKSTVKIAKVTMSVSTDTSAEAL

C=C1C(=O)N(C)CC(O)N1C(=O)/C=C/C=C\CC(C)C (centres undefined)
inactive: inhibition [1] | inhibition [2] | inhibition [3] | inhibition [4] | inhibition (Trypsin (Homo sapiens)) | inhibition (Homo sapiens) | inhibition [5] | Activity [6] | Activity [7] | Activity (Microbotryum violaceum) | Activity (Aspergillus ruber) | Activity (Mycotypha microspora) | Activity (Priestia megaterium) | Activity (Escherichia coli)
